Results reported in PubChem BioAssay AID720602 (Broad Institute, 2013).

Test system: LOX IMVI viability, ATP luminescence, 8/24/48 h
Assay: LOX IMVI melanoma cell viability loss, dose response, HRAS target identification, CellTiter-Glo ATP luminescence, 8/24/48 h, dry powder (AID 720602)

SMILES	AC50 (measured here: AC50 at 8 h) [nM]	AC50 (measured here: AC50 at 24 h) [nM]	AC50 (measured here: AC50 at 48 h) [nM]
COC(=O)c1ccc([C@@H]2c3[nH]c4ccccc4c3C[C@@H](C(=O)OC)N2C(=O)CCl)cc1	15.7	10.1	187
Cc1onc(C(=O)N2CCN(C(c3ccc(Cl)cc3)c3ccc(Cl)cc3)CC2)c1[N+](=O)[O-]	60	36.6	499
CC(C)(C)OC(=O)NCCOCCOCCOc1ccc(N(C(=O)CCl)C(C(=O)NCCc2ccccc2)c2cccs2)cc1Cl (stereo not given)	43.5	34.2	390
COc1ccc(N(C(=O)CCl)C(C(=O)NCCc2ccccc2)c2cccs2)cc1Cl (stereo not given)	21	25.9	122
C#CCCCC(=O)NCCOCCOCCOc1ccc(N(C(=O)CCl)C(C(=O)NCCc2ccccc2)c2cccs2)cc1Cl (stereo not given)	193	146	2640
